Residues, ends and D or L forms follow the SMILES beside them.
Molecular target: T1, human Ang4 (Homo sapiens, UniProt Q9Y264)
T1 construct: purchased R&D Systems 964-AN-025/CF
T1 sequence (Q9Y264 25-503): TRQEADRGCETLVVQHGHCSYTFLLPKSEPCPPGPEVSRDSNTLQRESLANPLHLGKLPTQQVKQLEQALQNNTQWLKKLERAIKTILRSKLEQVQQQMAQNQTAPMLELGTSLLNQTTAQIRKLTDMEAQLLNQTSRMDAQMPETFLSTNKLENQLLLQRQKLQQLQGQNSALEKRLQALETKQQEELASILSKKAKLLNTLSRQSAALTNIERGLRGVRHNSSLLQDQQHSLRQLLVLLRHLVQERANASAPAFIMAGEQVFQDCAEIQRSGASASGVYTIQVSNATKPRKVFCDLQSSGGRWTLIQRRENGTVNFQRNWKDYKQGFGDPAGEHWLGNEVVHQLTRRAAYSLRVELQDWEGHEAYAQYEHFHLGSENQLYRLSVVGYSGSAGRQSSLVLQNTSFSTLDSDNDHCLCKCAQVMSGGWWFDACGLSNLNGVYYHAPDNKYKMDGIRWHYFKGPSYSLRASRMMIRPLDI
Assay: BIACORE (SPR) binding of peptides to immobilized recombinant Ang4
Conditions: CM5 chip, 10-50 μM peptide
From the text: The capability of CGEN-H2 [SEQ ID NO: 1], CGEN-H3 [SEQ ID NO: 2], CGEN-A8 [SEQ ID NO: 3], CGEN-H7 [SEQ ID NO: 4], CGEN-G4 [SEQ ID NO: 5], CGEN-G6 [SEQ ID NO: 6], CGEN-F9 [SEQ ID NO: 7], CGEN-F12 [SEQ ID NO: 8], CGEN-C6-30 [SEQ ID NO: 9], CGEN-All [SEQ ID NO: 10], and CGEN-G2 [SEQ ID NO: 11] to specifically bind to recombinant Ang1, Ang2, and Ang4 was investigated using the BIACORE technology, measuring protein-protein interaction and binding affinity (Wendler et al 2005, Anal Bioanal Chem, 381: 1056-1064). The technology is based on surface plasmon resonance (SPR), an optical phenomenon that enables detection of unlabeled interactants in real time. The SPR-based biosensors can be used in determination of active concentration, screening and characterization in terms of both affinity and kinetics.
Peptide-protein binding was analyzed using surface plasmon resonance. Analysis of the to interaction between CGEN-H2 [SEQ ID NO: 1], CGEN-H3 [SEQ ID NO: 2], CGEN-A8 [SEQ ID NO: 3], CGEN-H7 [SEQ ID NO: 4], CGEN-G4 [SEQ ID NO: 5], CGEN-G6 [SEQ ID NO: 6], CGEN-F9 [SEQ ID NO: 7], CGEN-F12 [SEQ ID NO: 8], CGEN-C6 [SEQ ID NO: 9], CGEN-A11 [SEQ ID NO: 10], and CGEN-G2 [SEQ ID NO: 11] peptides and recombinant human Ang1 carrier-free (R&D Systems, Cat#923-AN-025/CF, Lot#FHW1507031), human Ang2 carrier-free (R&D Systems, Cat#623-AN-025/CF, Lot#BNO0457121), and human Ang4 carrier-free (R&D Systems, Cat#964-AN-025/CF, Lot#ELM025121) was conducted using the BIAcore biosensor (Pharmacia Biosensor, Uppsala, Sweden). The recombinant Ang1, Ang2, and Ang4 were immobilized directly to a CM5 sensor chip. Solutions containing 10-50 μM of CGEN-H2 [SEQ ID NO: 1], CGEN-H3 [SEQ ID NO: 2], CGEN-A8 [SEQ ID NO: 3], CGEN-H7 [SEQ ID NO: 4], CGEN-G4 [SEQ ID NO: 5], CGEN-G6 [SEQ ID NO: 6], CGEN-F9 [SEQ ID NO: 7], CGEN-F12 [SEQ ID NO: 8], CGEN-C6 [SEQ ID NO: 9], CGEN-A11 [SEQ ID NO: 10], and CGEN-G2 [SEQ ID NO: 11] peptides were injected into the sample chamber of the BIACORE device at a rate of […] and the interaction was monitored using surface plasmon resonance.
Solutions containing different concentrations of CGEN-G6 [SEQ ID NO: 6], CGEN-F9 [SEQ ID NO: 7], CGEN-F12 [SEQ ID NO: 8], CGEN-A11 [SEQ ID NO: 10], and CGEN-G2 [SEQ ID NO: 11] peptides (as indicated in Table 2) were injected into the sample chamber of the BIACORE device at a rate of […] and the interaction was monitored using surface plasmon resonance. As a background, the solutions were also injected onto an empty flow cell with no immobilized ligand and the in binding levels achieved were subtracted. Data was analyzed using BIAevaluation software. The affinity constant of the interaction between CGEN-G6 [SEQ ID NO: 6], CGEN-F9 [SEQ ID NO: 7], CGEN-F12 [SEQ ID NO: 8], CGEN-C6 [SEQ ID NO: 9], CGEN-A11 [SEQ ID NO: 10], and CGEN-G2 [SEQ ID NO: 11] and Ang1, Ang2, or Ang4 was determined by direct kinetic analysis. The 1:1 Langmuir binding model was used to fit kinetic data.
Table 2 summarizes results of analysis of CGEN-G6 [SEQ ID NO: 6], CGEN-F9 [SEQ ID NO: 7], CGEN-F12 [SEQ ID NO: 8], CGEN-A11 [SEQ ID NO: 10], and CGEN-G2 [SEQ ID NO: 11] interaction with Ang1, Ang2, or Ang4. Kinetic measurements were done at the indicated concentration range, and they are presented as KD (M). CGEN-F12 [SEQ ID NO: 8] bound to Ang1 and Ang4 with high affinity. The specificity of this binding is not clear.

SMILES: CSCC[C@H](NC(=O)[C@H](CC(C)C)NC(=O)[C@H](CC(=O)O)NC(C)=O)C(=O)N[C@@H](CCC(=O)O)C(=O)N[C@H](C(=O)N[C@H](C(=O)N[C@@H](CC(N)=O)C(=O)N[C@@H](CC(N)=O)C(=O)N[C@@H](CC(C)C)C(=O)N[C@@H](CC(C)C)C(=O)N[C@H](C(=O)N[C@@H](CCSC)C(=O)N[C@@H](CCSC)C(=O)N[C@@H](CO)C(=O)N[C@H](C(=O)N[C@@H](CO)C(=O)N[C@@H](CC(N)=O)C(=O)N[C@@H](CO)C(=O)N[C@@H](C)C(=O)N[C@@H](CCCCN)C(=O)N[C@@H](CC(=O)O)C(N)=O)[C@@H](C)O)[C@@H](C)O)C(C)C)[C@@H](C)O [CGEN-G6] (Ac-DLMETVNNLLTMMSTSNSAKD-NH2)
- binding to immobilized Ang4 (in words): capable of binding

SMILES: CC(=O)N[C@@H](CCC(=O)O)C(=O)N[C@H](C(=O)N[C@@H](Cc1ccccc1)C(=O)N[C@@H](CC(C)C)C(=O)N[C@@H](CO)C(=O)N[C@H](C(=O)N[C@@H](CC(N)=O)C(=O)N[C@@H](CCCCN)C(=O)N[C@@H](CC(C)C)C(=O)N[C@@H](CCC(=O)O)C(=O)N[C@@H](CC(N)=O)C(=O)N[C@@H](CCC(N)=O)C(N)=O)[C@@H](C)O)[C@@H](C)O [CGEN-A11, ETFLSTNKLENQ] (Ac-ETFLSTNKLENQ-NH2)
- binding to immobilized Ang4 (in words): capable of binding

SMILES: CC[C@H](C)[C@H](NC(=O)[C@H](C)NC(=O)[C@H](CCCNC(=N)N)NC(=O)[C@H](CCC(=O)O)NC(=O)[C@H](CC(C)C)NC(=O)[C@H](CCCCN)NC(=O)[C@H](CCCCN)NC(=O)[C@H](CC(C)C)NC(=O)[C@H](Cc1c[nH]c2ccccc12)NC(=O)[C@H](CCC(N)=O)NC(=O)[C@@H](NC(=O)[C@H](CC(N)=O)NC(=O)[C@H](CC(N)=O)NC(=O)[C@H](CCC(N)=O)NC(=O)[C@H](CC(C)C)NC(=O)[C@H](C)NC(=O)[C@H](CCC(N)=O)NC(=O)[C@H](CCC(=O)O)NC(=O)[C@H](CC(C)C)NC(=O)[C@H](CCC(N)=O)NC(=O)[C@H](CCCCN)NC(=O)[C@@H](NC(=O)[C@H](CCC(N)=O)NC(=O)[C@H](CCC(N)=O)NC(=O)[C@@H](NC(C)=O)[C@@H](C)O)C(C)C)[C@@H](C)O)C(=O)N[C@@H](CCCCN)C(=O)N[C@H](C(=O)N[C@H](C(=O)N[C@@H](CC(C)C)C(N)=O)[C@@H](C)CC)[C@@H](C)O [CGEN-G2] (Ac-TQQVKQLEQALQNNTQWLKKLERAIKTIL-NH2)
- binding to immobilized Ang4 (in words): capable of binding

Source: patent US9255132B2, “Angiopoietin derived peptides” (Compugen Ltd., priority 2008, dated 2016)
